Measurements: patent US10562912B2 (C&C Research Laboratories, priority 2013, dated 2020)

What was measured:
Type in all cases: cell-based
[1] = system: DU-145; assay: Cell growth inhibition assay, prostate cancer cell line DU-145; settings: Homo sapiens, DU-145 prostate cancer cell line
Summary of the method: (§1)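 Cells were seeded at 3,000/well (HCT116, DU-145) or 5,000/well (SW626 and the others) and exposed to serial compound dilutions for 72 to 96 h at 37 °C under 5% CO2. Viability was read as CellTiter-Glo luminescence against 0.1% DMSO and cell-free wells.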

[2] = target: T1, STAT3 (Homo sapiens, UniProt P40763); assay: STAT3 reporter gene assay (luciferase), LNCaP stable cell line (pSTAT3-TA-luc), IL-6 stimulation
T1 construct: plasmid pSTAT3-TA-luc), which contains a stably operating STAT3 promoter; endogenous in cells
Summary of the method: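 Cytotoxicity was run on a duplicate plate with CellTiter-Glo, while the other plate gave luciferase read-outs from lysed LNCaP pSTAT3-TA-luc reporter cells. Cells were treated with graded compound concentrations plus IL-6 (10 ng/mL final) for 24–48 h in 3% DCC-FBS medium. Unstimulated and stimulated wells served as negative and positive controls.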

[3] = system: HEL92.1.7; assay: Cell growth inhibition assay, blood cancer cell line HEL92.1.7; settings: Homo sapiens, HEL 92.1.7, HEL92.1.7 blood cancer cell line
Summary of the method: as §1

[4] = system: LNCaP; assay: Cell growth inhibition assay, prostate cancer cell line LNCaP (medium with 10 ng/mL IL-6); settings: Homo sapiens, medium supplemented with 10 ng/mL of IL-6, 10,000 cells/well

T1 sequence (P40763 whole entry): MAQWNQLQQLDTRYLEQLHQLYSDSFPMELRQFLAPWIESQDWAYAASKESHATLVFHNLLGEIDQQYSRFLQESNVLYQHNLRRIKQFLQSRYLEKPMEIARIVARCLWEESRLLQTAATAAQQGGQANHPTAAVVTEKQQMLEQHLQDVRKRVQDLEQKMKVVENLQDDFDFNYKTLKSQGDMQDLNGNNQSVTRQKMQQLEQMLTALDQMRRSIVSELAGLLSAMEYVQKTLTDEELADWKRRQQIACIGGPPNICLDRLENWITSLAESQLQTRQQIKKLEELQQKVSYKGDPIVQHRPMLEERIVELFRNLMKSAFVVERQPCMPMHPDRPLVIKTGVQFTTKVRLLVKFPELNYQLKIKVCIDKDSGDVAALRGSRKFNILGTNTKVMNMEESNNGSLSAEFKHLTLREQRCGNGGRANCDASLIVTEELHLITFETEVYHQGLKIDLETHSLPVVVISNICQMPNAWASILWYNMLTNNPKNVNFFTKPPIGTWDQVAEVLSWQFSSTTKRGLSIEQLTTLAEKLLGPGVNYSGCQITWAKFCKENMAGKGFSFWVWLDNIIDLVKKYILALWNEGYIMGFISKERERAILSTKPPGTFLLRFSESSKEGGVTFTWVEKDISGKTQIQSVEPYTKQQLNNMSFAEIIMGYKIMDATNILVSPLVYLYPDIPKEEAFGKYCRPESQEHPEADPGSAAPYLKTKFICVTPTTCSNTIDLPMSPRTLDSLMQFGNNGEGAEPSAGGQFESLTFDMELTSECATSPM

Row | Structure (SMILES) | IC50 [1] [µM] | IC50 [2] [µM] | IC50 [3] [µM] | IC50 [4] [µM]
1 | COc1ccc(OC)c(C(C)(C)c2cc(Cl)cc(NC(=O)c3cc4cc(NS(C)(=O)=O)ccc4s3)c2)c1 [Example 156, N-(3-chloro-5-(2-(2,5-dimethoxyphenyl)propan-2-yl)phenyl)-5-(methylsulfonamido)benzo[b]thiophene-2-carboxamide] | 0.25 | 0.23 | 0.74 | 0.14
2 | COc1ccc(C(C)(C)c2cc(Cl)cc(NC(=O)c3cc4cc(NS(C)(=O)=O)ccc4s3)c2)cc1OC [Example 153, N-(3-chloro-5-(2-(3,4-dimethoxyphenyl)propan-2-yl)phenyl)-5-(methylsulfonamido)benzo[b]thiophene-2-carboxamide] | 0.15 | 0.15 | 0.39 | 0.1
3 | COc1ccc(C(C)(C)c2cc(Cl)cc(NC(=O)c3cc4cc(NS(C)(=O)=O)ccc4s3)c2)cc1 [Example 155, N-(3-chloro-5-(2-(4-methoxyphenyl)propan-2-yl)phenyl)-5-(methylsulfonamido)benzo[b]thiophene-2-carboxamide] | 0.061 | 0.078 | 0.13 | 0.034
4 | CC(C)Oc1cc(OC(F)(F)F)cc(C(C)(C)c2cc(Cl)cc(N(C)C(=O)c3cc4cc(N(C)S(C)(=O)=O)c(F)cc4s3)c2)c1 [Example 216, N-(3-chloro-5-(2-(3-isopropoxy-5-(trifluoromethoxy)phenyl)propan-2-yl)phenyl)-6-fluoro-N-methyl-5-(N-methylmethylsulfonamido)benzo[b]thiophene-2-carboxamide] | 0.3 | 0.38 | 0.95 | 1.1
5 | CC(C)Oc1cc(OC(F)(F)F)cc(C(C)(C)c2cc(Cl)cc(NC(=O)c3cc4cc(NS(=O)(=O)CCN(C)C)ccc4s3)c2)c1 [Example 208, N-(3-chloro-5-(2-(3-isopropoxy-5-(trifluoromethoxy)phenyl)propan-2-yl)phenyl)-5-((2-(dimethylamino)ethyl)sulfonamido)benzo[b]thiophene-2-carboxamide] | 0.08 | 0.17 | 0.33 | 0.22

Molecules with a lower IC50 [1], results first:

Row | IC50 [1] [µM] | IC50 [2] [µM] | IC50 [3] [µM] | IC50 [4] [µM] | Structure (SMILES)
6 | 0.045 | 0.11 | 0.16 | 0.035 | CC(C)Oc1cc(OC(F)(F)F)cc(C(C)(C)c2cc(Cl)cc(NC(=O)c3cc4cc(NS(=O)(=O)N5CCOCC5)ccc4s3)c2)c1 [Example 103, N-(3-chloro-5-(2-(3-isopropoxy-5-(trifluoromethoxy)phenyl)propan-2-yl)phenyl)-5-(morpholine-4-sulfonamido)benzo[b]thiophene-2-carboxamide]
7 | 0.035 | 0.11 | 0.097 | 0.063 | CS(=O)(=O)Nc1ccc2sc(C(=O)Nc3cc(Cl)cc(-c4ccc(F)cc4F)c3)cc2c1 [Example 323, N-(5-chloro-2′,4′-difluoro-[1,1′-biphenyl]-3-yl)-5-(methylsulfonamido)benzo[b]thiophene-2-carboxamide]
8 | 0.016 | 0.011 | 0.019 | 0.013 | CN(c1cc2cc(C(=O)Nc3cc(Cl)cc(C(C)(C)c4ccc(Cl)cc4)c3)sc2cc1F)S(C)(=O)=O [Example 163, N-(3-chloro-5-(2-(4-chlorophenyl)propan-2-yl)phenyl)-6-fluoro-5-(N-methylmethylsulfonamido)benzo[b]thiophene-2-carboxamide]
9 | 0.008 | 0.015 | 0.087 | 0.024 | CC(C)(c1cc(Cl)cc(NC(=O)c2cc3cc(NS(C)(=O)=O)ccc3s2)c1)c1cc(OCC(F)(F)F)cc(OC(F)(F)F)c1 [Example 88, N-(3-chloro-5-(2-(3-(2,2,2-trifluoroethoxy)-5-(trifluoromethoxy)phenyl)propan-2-yl)phenyl)-5-(methylsulfonamido)benzo[b]thiophene-2-carboxamide]
